# Experimental data taken from US7144894B2, “Sulfonamide bicyclic compounds” (Bristol-Myers Squibb Company, priority 2004, dated 2006).
# Test system: β-amyloid peptide formation
# Assay: Inhibition of β-amyloid peptide formation in human H4 cells
# Assay type: cell-based
# Conditions: H4 cells stably transfected to overexpress HPLAP-APP fusion protein; 18 hrs incubation; Aβ in supernatant; read-out: Binding affinity (IC50 in nM)
# Protocol: γ-Secretase inhibitors were also evaluated using in vitro assays based on the inhibition of Aβ formation in cultured cells. Cultured human cell lines, such as HEK293 and H4 cells, which express APP and γ-secretase activity or transfected derivative cell lines that overexpress wild-type APP, mutant APP, or APP fusion proteins will secrete Aβ peptides into the culture media that can be quantified as previously outlined (Dovey H. et al., J. Neurochem. 2001, 76, 173). The incubation of these cultured cells with γ-secretase inhibitors decreases the production of Aβ peptides. For instance, H4 cells stably transfected to overexpress the HPLAP-APP fusion protein described above were grown as above, detached, and adjusted to 2×10^5 cells/ml. 100 μl of the resulting suspension was then added to each well of a 96-well plate. After 4 hrs, the media was removed and replaced with 100 μl serum-free media containing various dilutions of the test compound. Plates were then incubated for 18 hrs at 37° C. and a 100 μl aliquot of the tissue culture supernatant was removed for determination of Aβ levels using time-resolved fluorescence of the homogenous sample as outlined above. The extent of Aβ inhibition was used to calculate the IC50 value for the test compound.
# Representative compounds were evaluated in the above assay and were determined to inhibit Aβ formation.
row,Compound,IC50
1,"CC(C)C[C@H](C(N)=O)N(Cc1ccc2c(c1)CCN(Cc1ccccn1)C2=O)S(=O)(=O)c1ccc(Cl)cc1 [Example 13, 2R-(N-(1-oxo-2-(2-pyridylmethyl)-1,2,3,4-tetrahydroisoquinolin-6-ylmethylamino)-N-4-chlorophenylsulonyl)amino-4-methyl-pentanamide]",0.25 to 50 nM
2,"CC(C)C[C@H](C(N)=O)N(Cc1ccc2c(c1)CCN(C)C2=O)S(=O)(=O)c1ccc(Cl)cc1 [Example 14, 2R-(N-(1-oxo-2-methyl-1,2,3,4-tetrahydroisoquinolin-6-ylmethylamino)-N-4-chlorophenylsulfonyl)amino-4-methyl-pentanamide]",0.25 to 50 nM
3,"CCCN1CCc2cc(CN([C@H](CC(C)C)C(N)=O)S(=O)(=O)c3ccc(Cl)cc3)ccc2C1=O [Example 15, 2R-(N-(1-oxo-2-propyl-1,2,3,4-tetrahydroisoquinolin-6-ylmethylamino)-N-4-chlorophenylsulfonyl)amino-4-methyl-pentanamide]",0.25 to 50 nM
4,"CCCCN1CCc2cc(CN([C@H](CC(C)C)C(N)=O)S(=O)(=O)c3ccc(Cl)cc3)ccc2C1=O [Example 16, 2R-(N-(1-oxo-2-butyl-1,2,3,4-tetrahydroisoquinolin-6-ylmethylamino)-N-4-chlorophenylsulfonyl)amino-4-methyl-pentanamide]",0.25 to 50 nM
5,"CC(C)C[C@H](C(N)=O)N(Cc1ccc2c(c1)CCN(Cc1ccccc1)C2=O)S(=O)(=O)c1ccc(Cl)cc1 [Example 17, 2R-(N-(1-oxo-2-benzyl-1,2,3,4-tetrahydroisoquinolin-6-ylmethylamino)-N-4-chlorophenylsulfonyl)amino-4-methyl-pentanamide]",0.25 to 50 nM
6,"COCCN1CCc2cc(CN([C@H](CC(C)C)C(N)=O)S(=O)(=O)c3ccc(Cl)cc3)ccc2C1=O [Example 18, 2R-(N-(1-oxo-2-(2-methoxyethyl)-1,2,3,4-tetrahydroisoquinolin-6-ylmethylamino)-N-4-chlorophenylsulonyl)amino-4-methyl-pentanamide]",0.25 to 50 nM
7,"CC(C)C[C@H](C(N)=O)N(Cc1ccc2c(c1)CCN(CC1CC1)C2=O)S(=O)(=O)c1ccc(Cl)cc1 [Example 19, 2R-(N-(1-oxo-2-cyclopropylmethyl-1,2,3,4-tetrahydroisoquinolin-6-ylmethylamino)-N-4-chlorophenylsulfonyl)amino-4-methyl-pentanamide]",0.25 to 50 nM
8,"CC(C)C[C@H](C(N)=O)N(Cc1ccc2c(c1)CCN(CC1CCC1)C2=O)S(=O)(=O)c1ccc(Cl)cc1 [Example 20, 2R-(N-(1-oxo-2-cyclobutylmethyl-1,2,3,4-tetrahydroisoquinolin-6-ylmethylamino)-N-4-chlorophenylsulfonyl)amino-4-methyl-pentanamide]",0.25 to 50 nM
9,"CC(C)N1CCc2cc(CN([C@H](CC3CC3)C(N)=O)S(=O)(=O)c3ccc(Cl)cc3)ccc2C1=O [Example 23, 2R-(N-(1-oxo-2-(2-propyl)-1,2,3,4-tetrahydroisoquinolin-6-ylmethylamino)-N-4-chlorophenylsulfonyl)amino-3-cyclopropyl-propanamide]",0.25 to 50 nM
10,"CCC(CC)N1CCc2cc(CN([C@H](CC3CC3)C(N)=O)S(=O)(=O)c3ccc(Cl)cc3)ccc2C1=O [Example 24, 2R-(N-(1-oxo-2-(3-pentyl)-1,2,3,4-tetrahydroisoquinolin-6-ylmethylamino)-N-4-chlorophenylsulfonyl)amino-3-cyclopropyl-propanamide]",0.25 to 50 nM

# Same assay, conditions: Homo sapiens; H4 cells stably transfected to overexpress HPLAP-APP fusion protein; 18 hrs incubation; Aβ in supernatant; read-out: Binding affinity (IC50 in nM)
row,Compound,IC50
1,"CC(C)C[C@H](C(N)=O)N(Cc1ccc2[nH]ccc2c1)S(=O)(=O)c1ccc(Cl)cc1 [Example 2, 2R-(N-indol-5-ylmethyl-N-4-chlorophenylsulfonyl)amino-4-methyl-pentanamide]",0.25 to 50 nM
2,"Cc1cc2cc(CN([C@H](CC(C)C)C(N)=O)S(=O)(=O)c3ccc(Cl)cc3)ccc2n1C(=O)OC(C)(C)C [Example 3, 2R-(N-(1-t-Butyloxycarbonyl-2-methylindol-5-ylmethyl)-N-4-chlorophenylsulfonyl)amino-4-methyl-pentanamide]",0.25 to 50 nM
3,"Cc1cc2cc(CN([C@H](CC(C)C)C(N)=O)S(=O)(=O)c3ccc(Cl)cc3)ccc2[nH]1 [Example 4, 2R-(N-(2-methylindol-5-ylmethyl)-N-4-chlorophenylsulfonyl)amino-4-methyl-pentanamide]",0.25 to 50 nM
4,"CC(C)C[C@H](C(N)=O)N(Cc1ccc2c(c1)CCNC2=O)S(=O)(=O)c1ccc(Cl)cc1 [Example 5, 2R-(N-(1-oxo-1,2,3,4-tetrahydroisoquinolin-6-ylmethyl)-N-4-chlorophenylsulfonyl)amino-4-methyl-pentanamide]",0.25 to 50 nM
5,"CCN1CCc2cc(CN([C@H](CC(C)C)C(N)=O)S(=O)(=O)c3ccc(Cl)cc3)ccc2C1=O [Example 6, 2R-(N-(1-oxo-2-ethyl-1,2,3,4-tetrahydroisoquinolin-6-ylmethylamino)-N-4-chlorophenylsulfonyl)amino-4-methyl-pentanamide]",0.25 to 50 nM
6,"CC(C)C[C@H](C(N)=O)N(Cc1ccc2c(c1)CCC(=O)N2)S(=O)(=O)c1ccc(Cl)cc1 [Example 7, 2R-(N-(2-oxo-1,2,3,4-tetrahydroquinolin-6-ylmethyl)-N-4-chlorophenylsulfonyl)amino-4-methyl-pentanamide]",50 to 500 nM
7,"CC(C)C[C@H](C(N)=O)N(Cc1ccc2c(c1)CCN2)S(=O)(=O)c1ccc(Cl)cc1 [Example 9, 2R-(N-indolin-5-yl-N-4-chlorophenylsulfonyl)methylamino-4-methyl-pentanamide]",0.25 to 50 nM
8,"CC(C)C[C@H](C(N)=O)N(Cc1ccc2c(c1)CCN2C)S(=O)(=O)c1ccc(Cl)cc1 [Example 10, 2R-(N-1-methylindolin-5-yl-N-4-chlorophenylsulfonyl)methylamino-4-methyl-pentanamide]",0.25 to 50 nM
9,"CC(C)C[C@H](C(N)=O)N(Cc1ccc2c(c1)CCN2C(=O)C1CCCC1)S(=O)(=O)c1ccc(Cl)cc1 [Example 12, 2R-(N-1-cyclopentylcarbonylindolin-5-yl-N-4-chlorophenylsulfonyl)methylamino-4-methyl-pentanamide]",0.25 to 50 nM
10,"CCN1CCc2cc(CN([C@H](CC3CC3)C(N)=O)S(=O)(=O)c3ccc(Cl)cc3)ccc2C1=O [Example 21, 2R-(N-(1-oxo-2-ethyl-1,2,3,4-tetrahydroisoquinolin-6-ylmethylamino)-N-4-chlorophenylsulfonyl)amino-3-cyclopropyl-propanamide]",0.25 to 50 nM
11,"CCN1CCc2cc(CN([C@H](CC(F)F)C(N)=O)S(=O)(=O)c3ccc(Cl)cc3)ccc2C1=O [Example 22, 2R-(N-(1-oxo-2-ethyl-1,2,3,4-tetrahydroisoquinolin-6-ylmethylamino)-N-4-chlorophenylsulfonyl)amino-4,4-difluorobutanamide]",0.25 to 50 nM

# Test system: not listed separately
# Assay: HPLC log P
# Assay type: physicochemical
# Conditions: pH 7.0
row,Compound,chromatographic logP
1,"CC(C)C[C@H](C(N)=O)N(Cc1ccc2[nH]ccc2c1)S(=O)(=O)c1ccc(Cl)cc1 [Example 2, 2R-(N-indol-5-ylmethyl-N-4-chlorophenylsulfonyl)amino-4-methyl-pentanamide]",3.81
2,"Cc1cc2cc(CN([C@H](CC(C)C)C(N)=O)S(=O)(=O)c3ccc(Cl)cc3)ccc2[nH]1 [Example 4, 2R-(N-(2-methylindol-5-ylmethyl)-N-4-chlorophenylsulfonyl)amino-4-methyl-pentanamide]",4.21
